Laboratory results reported in patent US9040067B2, “Disinfecting and antimicrobial compositions” (priority 2005, dated 2015).

Tests used:
[1] = system: E. coli 0157;H7; test: MIC/MLC in brain heart infusion broth; type: cell-based; also: key: + = growth (inactive); − = no growth (active)
Description: (§1) The tests were carried out in 10 ml of brain heart infusion broth. The esters were serially diluted in brain heart infusion broth of samples of, 0.1, 0.2, 0.3, 0.4 and 0.5/10 ml and challenged with 0.1 ml of 1/100 dilution of 24 hr old brain heart infusion bacterial culture. The lowest concentration determined the minimum inhibitory concentration (MIC). The samples were observed after 48 hrs at 37° C. A loopful from tubes without growth were plated on BHI agar plates and observed for growth for 24 to 48 hrs at 37° C. The samples with the lowest concentration of the ester without bacterial growth on the plates represented the minimum lethal concentration (MLC).
(§2) A series of samples of (a) methyl lactate, (b) ethyl lactate and (c) butyl lactate, alone, and in admixture with varying amounts of decyl lactate and sodium dodecyl sulfates were used to test minimum inhibitory activity (MIC) by the method described in Example II, against the cultures of E. coli 0157 H7, Listeria monocytogenes, Staphylococcus aureus, Salmonella typhi, and Pseudomonas aeruginosa.

[2] = system: Listeria monocytogenes; test: MIC/MLC in brain heart infusion broth; type: cell-based
Description: as §1, §2

[3] = system: Pseudomonas aeruginosa; test: MIC/MLC in brain heart infusion broth; type: cell-based; settings: for MIC, Concentration of Lactic Esters 0.5%: 0.5% ester; for MIC, Concentration of Lactic Esters 1%: 1% ester; for MIC, Concentration of Lactic Esters 2%: 2% ester; for MIC, Concentration of Lactic Esters 3%: 3% ester; for MIC, Concentration of Lactic Esters 4%: 4% ester; for MIC, Concentration of Lactic Esters 5%: 5% ester; as to MIC, Concentration of Lactic Esters 0.5%: key: + = growth (inactive); − = no growth (active); as to MIC, Concentration of Lactic Esters 1%: key: + = growth (inactive); − = no growth (active); as to MIC, Concentration of Lactic Esters 2%: key: + = growth (inactive); − = no growth (active); as to MIC, Concentration of Lactic Esters 3%: key: + = growth (inactive); − = no growth (active); as to MIC, Concentration of Lactic Esters 4%: key: + = growth (inactive); − = no growth (active); as to MIC, Concentration of Lactic Esters 5%: key: + = growth (inactive); − = no growth (active)
Description: as §1, §2

[4] = system: Staphylococcus aureus; test: MIC/MLC in brain heart infusion broth; type: cell-based
Description: as §1, with “The esters were serially diluted in brain heart infusion broth of samples of, 0.1, 0.2, 0.3, 0.4 and 0.5/10 ml and challenged with 0.1 ml of 1/100 dilution of 24 hr old brain heart infusion bacterial culture.” left out
as §2

[5] = system: Salmonella typhimurium; test: MIC/MLC in brain heart infusion broth; type: cell-based
Description: as §1

[6] = system: Salmonella typhi; test: MIC in brain heart infusion broth; type: cell-based; settings: Table 4; also: key: + = growth (inactive); − = no growth (active)
Description: as §1, §2

[7] = system: Saccharomyces cerevisiae; test: MIC and MLC against yeast in Sab. broth; type: cell-based; settings: for Lethal (MLC) Concentration 1% / Inhibitory (MIC) Concentration 1%: 1% ester; for Lethal (MLC) Concentration 1.5% / Inhibitory (MIC) Concentration 1.5%: 1.5% ester; for Lethal (MLC) Concentration 2% / Inhibitory (MIC) Concentration 2%: 2% ester; for Lethal (MLC) Concentration 3% / Inhibitory (MIC) Concentration 3%: 3% ester; for Lethal (MLC) Concentration 4% / Inhibitory (MIC) Concentration 4%: 4% ester; as to Lethal (MLC) Concentration 1%: key: + = growth (inactive); − = no growth (active); as to Lethal (MLC) Concentration 1.5%: key: + = growth (inactive); − = no growth (active); as to Lethal (MLC) Concentration 2%: key: + = growth (inactive); − = no growth (active); as to Lethal (MLC) Concentration 3%: key: + = growth (inactive); − = no growth (active); as to Lethal (MLC) Concentration 4%: key: + = growth (inactive); − = no growth (active)
Description: A 0.1 ml of 1/100 dilution of 48 hr old culture of S. cerevisiae was used as inoculum. The test was performed using Sab. broth. The tubes were incubated at room temperature 25° C. The test was read after 48 hrs.

[8] = Solubilization of dehydroacetic acid by ethyl lactate; type: physicochemical; settings: 5.0 parts of dehydroacetic acid in 100 ml of ethyl lactate, room temperature
[9] = 1%, second MLC line of organism
[10] = 2%, second MLC line of organism
[11] = 3%, second MLC line of organism
[12] = 4%, second MLC line of organism
[13] = 5%, second MLC line of organism

SMILES: CCOC(=O)C(C)O (centres unmarked) [Ethyl lactate, ethyl lactate]
- MLC, Concentration of Ethyl lactate 0.5% ([1]; first MLC line of organism): +
- MLC, Concentration of Ethyl lactate 0.5% ([1]; second MLC line of organism): +
- MIC, growth at 1% ([1]; 1%, Table 4): +
- MLC, Concentration of Ethyl lactate 1% ([1]; 1%, first MLC line of organism): +
- MLC, Concentration of Ethyl lactate 1% [1, 9]: +
- MIC, growth at 2% ([1]; 2%, Table 4): +
- MLC, Concentration of Ethyl lactate 2% ([1]; 2%, first MLC line of organism): −
- MLC, Concentration of Ethyl lactate 2% [1, 10]: +
- MIC, growth at 3% ([1]; 3%, Table 4): +
- MLC, Concentration of Ethyl lactate 3% ([1]; 3%, first MLC line of organism): −
- MLC, Concentration of Ethyl lactate 3% [1, 11]: −
- MIC, growth at 4% ([1]; 4%, Table 4): −
- MLC, Concentration of Ethyl lactate 4% ([1]; 4%, first MLC line of organism): −
- MLC, Concentration of Ethyl lactate 4% [1, 12]: −
- MIC, growth at 5% ([1]; 5%, Table 4): −
- MLC, Concentration of Ethyl lactate 5% ([1]; 5%, first MLC line of organism): −
- MLC, Concentration of Ethyl lactate 5% [1, 13]: −
- MLC, Concentration of Ethyl lactate 0.5% ([2]; first MLC line of organism): +
- MLC, Concentration of Ethyl lactate 0.5% ([2]; second MLC line of organism): +
- MIC, growth at 1% ([2]; 1%, Table 4): +
- MLC, Concentration of Ethyl lactate 1% ([2]; 1%, first MLC line of organism): +
- MLC, Concentration of Ethyl lactate 1% [2, 9]: +
- MIC, growth at 2% ([2]; 2%, Table 4): +
- MLC, Concentration of Ethyl lactate 2% ([2]; 2%, first MLC line of organism): +
- MLC, Concentration of Ethyl lactate 2% [2, 10]: +
- MIC, growth at 3% ([2]; 3%, Table 4): +
- MLC, Concentration of Ethyl lactate 3% ([2]; 3%, first MLC line of organism): +
- MLC, Concentration of Ethyl lactate 3% [2, 11]: +
- MIC, growth at 4% ([2]; 4%, Table 4): +
- MLC, Concentration of Ethyl lactate 4% ([2]; 4%, first MLC line of organism): +
- MLC, Concentration of Ethyl lactate 4% [2, 12]: +
- MIC, growth at 5% ([2]; 5%, Table 4): +
- MLC, Concentration of Ethyl lactate 5% ([2]; 5%, first MLC line of organism): +
- MLC, Concentration of Ethyl lactate 5% [2, 13]: +
- MIC, Concentration of Lactic Esters 0.5% ([3]; SDS 0.0 ppm): +
- MIC, Concentration of Lactic Esters 0.5% ([3]; SDS 50 ppm): −
- MIC, Concentration of Lactic Esters 0.5% ([3]; SDS 100 ppm): −
- MIC, Concentration of Lactic Esters 0.5% ([3]; SDS 200 ppm): −
- MLC, Concentration of Ethyl lactate 0.5% ([3]; first MLC line of organism): +
- MLC, Concentration of Ethyl lactate 0.5% ([3]; second MLC line of organism): +
- MIC, Concentration of Lactic Esters 1% ([3]; SDS 0.0 ppm): +
- MIC, Concentration of Lactic Esters 1% ([3]; SDS 50 ppm): −
- MIC, Concentration of Lactic Esters 1% ([3]; SDS 100 ppm): −
- MIC, Concentration of Lactic Esters 1% ([3]; SDS 200 ppm): −
- MLC, Concentration of Ethyl lactate 1% ([3]; first MLC line of organism): +
- MLC, Concentration of Ethyl lactate 1% ([3]; second MLC line of organism): +
- MIC, Concentration of Lactic Esters 2% ([3]; SDS 0.0 ppm): −
- MIC, Concentration of Lactic Esters 2% ([3]; SDS 50 ppm): −
- MIC, Concentration of Lactic Esters 2% ([3]; SDS 100 ppm): −
- MIC, Concentration of Lactic Esters 2% ([3]; SDS 200 ppm): −
- MLC, Concentration of Ethyl lactate 2% ([3]; first MLC line of organism): −
- MLC, Concentration of Ethyl lactate 2% ([3]; second MLC line of organism): +
- MIC, Concentration of Lactic Esters 3% ([3]; SDS 0.0 ppm): −
- MIC, Concentration of Lactic Esters 3% ([3]; SDS 50 ppm): −
- MIC, Concentration of Lactic Esters 3% ([3]; SDS 100 ppm): −
- MIC, Concentration of Lactic Esters 3% ([3]; SDS 200 ppm): −
- MLC, Concentration of Ethyl lactate 3% ([3]; first MLC line of organism): −
- MLC, Concentration of Ethyl lactate 3% ([3]; second MLC line of organism): +
- MIC, Concentration of Lactic Esters 4% ([3]; SDS 0.0 ppm): −
- MIC, Concentration of Lactic Esters 4% ([3]; SDS 50 ppm): −
- MIC, Concentration of Lactic Esters 4% ([3]; SDS 100 ppm): −
- MIC, Concentration of Lactic Esters 4% ([3]; SDS 200 ppm): −
- MLC, Concentration of Ethyl lactate 4% ([3]; first MLC line of organism): −
- MLC, Concentration of Ethyl lactate 4% ([3]; second MLC line of organism): −
- MIC, Concentration of Lactic Esters 5% ([3]; SDS 0.0 ppm): −
- MIC, Concentration of Lactic Esters 5% ([3]; SDS 50 ppm): −
- MIC, Concentration of Lactic Esters 5% ([3]; SDS 100 ppm): −
- MIC, Concentration of Lactic Esters 5% ([3]; SDS 200 ppm): −
- MLC, Concentration of Ethyl lactate 5% ([3]; first MLC line of organism): −
- MLC, Concentration of Ethyl lactate 5% ([3]; second MLC line of organism): −
- MLC, Concentration of Ethyl lactate 0.5% ([4]; first MLC line of organism): +
- MLC, Concentration of Ethyl lactate 0.5% ([4]; second MLC line of organism): +
- MIC, growth at 1% ([4]; 1%, Table 4): +
- MLC, Concentration of Ethyl lactate 1% ([4]; 1%, first MLC line of organism): +
- MLC, Concentration of Ethyl lactate 1% [4, 9]: +
- MIC, growth at 2% ([4]; 2%, Table 4): +
- MLC, Concentration of Ethyl lactate 2% ([4]; 2%, first MLC line of organism): +
- MLC, Concentration of Ethyl lactate 2% [4, 10]: +
- MIC, growth at 3% ([4]; 3%, Table 4): +
- MLC, Concentration of Ethyl lactate 3% ([4]; 3%, first MLC line of organism): +
- MLC, Concentration of Ethyl lactate 3% [4, 11]: +
- MIC, growth at 4% ([4]; 4%, Table 4): +
- MLC, Concentration of Ethyl lactate 4% ([4]; 4%, first MLC line of organism): +
- MLC, Concentration of Ethyl lactate 4% [4, 12]: +
- MIC, growth at 5% ([4]; 5%, Table 4): +
- MLC, Concentration of Ethyl lactate 5% ([4]; 5%, first MLC line of organism): −
- MLC, Concentration of Ethyl lactate 5% [4, 13]: +
- MLC, Concentration of Ethyl lactate 0.5% ([5]; first MLC line of organism): +
- MLC, Concentration of Ethyl lactate 0.5% ([5]; second MLC line of organism): +
- MLC, Concentration of Ethyl lactate 1% ([5]; first MLC line of organism): +
- MLC, Concentration of Ethyl lactate 1% ([5]; second MLC line of organism): +
- MLC, Concentration of Ethyl lactate 2% ([5]; first MLC line of organism): +
- MLC, Concentration of Ethyl lactate 2% ([5]; second MLC line of organism): +
- MLC, Concentration of Ethyl lactate 3% ([5]; first MLC line of organism): +
- MLC, Concentration of Ethyl lactate 3% ([5]; second MLC line of organism): +
- MLC, Concentration of Ethyl lactate 4% ([5]; first MLC line of organism): −
- MLC, Concentration of Ethyl lactate 4% ([5]; second MLC line of organism): +
- MLC, Concentration of Ethyl lactate 5% ([5]; first MLC line of organism): −
- MLC, Concentration of Ethyl lactate 5% ([5]; second MLC line of organism): +
- MIC, growth at 1% ([6]; 1%): +
- MIC, growth at 2% ([6]; 2%): +
- MIC, growth at 3% ([6]; 3%): +
- MIC, growth at 4% ([6]; 4%): −
- MIC, growth at 5% ([6]; 5%): −
- Lethal (MLC) Concentration 1% [7]: +
- Inhibitory (MIC) Concentration 1% ([7]; 48 hrs, 25° C): +
- Inhibitory (MIC) Concentration 1% ([7]; Sodium lauryl sulfate 200 ppm): +
- Lethal (MLC) Concentration 1% ([7]; Sodium lauryl sulfate 200 ppm): +
- Lethal (MLC) Concentration 1.5% [7]: +
- Inhibitory (MIC) Concentration 1.5% ([7]; 48 hrs, 25° C): −
- Inhibitory (MIC) Concentration 1.5% ([7]; Sodium lauryl sulfate 200 ppm): −
- Lethal (MLC) Concentration 1.5% ([7]; Sodium lauryl sulfate 200 ppm): +
- Lethal (MLC) Concentration 2% [7]: −
- Inhibitory (MIC) Concentration 2% ([7]; 48 hrs, 25° C): −
- Inhibitory (MIC) Concentration 2% ([7]; Sodium lauryl sulfate 200 ppm): −
- Lethal (MLC) Concentration 2% ([7]; Sodium lauryl sulfate 200 ppm): −
- Lethal (MLC) Concentration 3% [7]: −
- Inhibitory (MIC) Concentration 3% ([7]; 48 hrs, 25° C): −
- Inhibitory (MIC) Concentration 3% ([7]; Sodium lauryl sulfate 200 ppm): −
- Lethal (MLC) Concentration 3% ([7]; Sodium lauryl sulfate 200 ppm): −
- Lethal (MLC) Concentration 4% [7]: −
- Inhibitory (MIC) Concentration 4% ([7]; 48 hrs, 25° C): −
- Inhibitory (MIC) Concentration 4% ([7]; Sodium lauryl sulfate 200 ppm): −
- Lethal (MLC) Concentration 4% ([7]; Sodium lauryl sulfate 200 ppm): −

SMILES: CC(=O)C1C(=O)C=C(C)OC1=O (centres unmarked) [dehydroacetic acid]
- solubility in ethyl lactate (appearance of solution) [8]: clear solution
